Assay results reported in the supplement of paper PMC11061612.

Key:
Assay in all cases: combination Emax (second highest fraction inhibited in the dose matrix, 72 h); higher = more inhibition; extreme values may be limits of the assay
[1] = system: C-4-I (Cervical Carcinoma)
In short: (§1)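 Cell lines in DMEM/F12 or RPMI with 10% FBS were plated in 1536-well plates, held 24 hours at 37°C, 5% CO2, then given two-drug dose matrices for 72 hours (DMSO typically 0.2%). Viability was read by CellTiter-Glo 2.0 luminescence and scaled as inhibition from 0 (vehicle wells) to 1 (blank wells). Combination Emax is the second-highest inhibition in the matrix; Bliss excess is observed combination effect minus expected EA + EB − EA·EB, EA and EB being single-agent effects.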

[2] = system: YH-13 (Glioblastoma)
In short: as §1

[3] = system: NEC8 (Other Solid Carcinomas)
In short: as §1

[4] = system: KMOE-2 (Acute Myeloid Leukemia)
In short: as §1

[5] = system: MIA-PaCa-2 (Pancreatic Carcinoma)
In short: as §1

[6] = system: Ca9-22 (Head and Neck Carcinoma)
In short: as §1

[7] = system: BT-549 (Breast Carcinoma)
In short: as §1

[8] = system: EoL-1-cell (Acute Myeloid Leukemia)
In short: as §1

[9] = system: SCC-15 (Oral Cavity Carcinoma)
In short: as §1

[10] = system: EW-24 (Ewing's Sarcoma)
In short: as §1

[11] = system: HOP-62 (Lung Adenocarcinoma)
In short: as §1

[12] = system: PWR-1E (Non-Cancerous)
In short: as §1

[13] = system: D-263MG (Glioblastoma)
In short: as §1

[14] = system: NB69 (Neuroblastoma)
In short: as §1

[15] = system: PANC-04-03 (Pancreatic Carcinoma)
In short: as §1

[16] = system: EFM-19 (Breast Carcinoma)
In short: as §1

[17] = system: RF-48 (B-Cell Non-Hodgkin's Lymphoma)
In short: as §1

[18] = system: KARPAS-299 (T-Cell Non-Hodgkin's Lymphoma)
In short: as §1

[19] = system: SW13 (Other Solid Carcinomas)
In short: as §1

[20] = system: VA-ES-BJ (Other Solid Carcinomas)
In short: as §1

Row | SMILES | combination Emax [1] | combination Emax [2] | combination Emax [3] | combination Emax [4] | combination Emax [5] | combination Emax [6] | combination Emax [7] | combination Emax [8] | combination Emax [9] | combination Emax [10] | combination Emax [11] | combination Emax [12] | combination Emax [13] | combination Emax [14] | combination Emax [15] | combination Emax [16] | combination Emax [17] | combination Emax [18] | combination Emax [19] | combination Emax [20]
1 | Cc1c2c(nn1C)CSCc1cc(n(C)n1)CSc1cc(c3ccccc3c1)OCCCc1c(C(=O)O)n(C)c3c-2c(Cl)ccc13 [AZD5991] + C1CN(CCC1(C(=O)N[C@@H](CCO)C2=CC=C(C=C2)Cl)N)C3=NC=NC4=C3C=CN4 [Capivasertib] (first compound max 1 µM, 7x7, partner max 3 µM) | 1 | 0.265 | 0.431 | 0.793 | 0.244 | 0.242 | 0.432 | 1 | 0.207 | 0.332 | 0.257 | 0.226 | 0.958 | 0.794 | 0.186 | 0.629 | 0.353 | 1 | 0.967 | 0.227
2 | CC1(C)CCC(CN2CCN(c3ccc(C(=O)NS(=O)(=O)c4ccc(NCC5CCOCC5)c([N+](=O)[O-])c4)c(Oc4cnc5[nH]ccc5c4)c3)CC2)=C(c2ccc(Cl)cc2)C1 [Venetoclax] + C=CCn1c(=O)c2cnc(Nc3ccc(N4CCN(C)CC4)cc3)nc2n1-c1cccc(C(C)(C)O)n1 [AZD1775] (first compound max 1 µM, partner max 1 µM) | 0.872 | 0.381 | 0.42 | 0.966 | 0.795 | 0.903 | 0.778 | 1 | 0.327 | 0.34 | 0.446 | 0.548 | 0.808 | 0.849 | 0.466 | 0.489 | 0.667 | 0.951 | 0.289 | 0.503
3 | NC1(C(=O)N[C@@H](CCO)c2ccc(Cl)cc2)CCN(c2ncnc3[nH]ccc23)CC1 [Capivasertib] + CCN(CCO)CCCOc1ccc2c(Nc3cc(CC(=O)Nc4cccc(F)c4)[nH]n3)ncnc2c1 [AZD2811] (first compound max 10 µM, 7x7, partner max 1 µM) | 0.402 | 0.627 | 0.199 | 0.489 | 0.418 | 0.445 | 0.435 | 1 | 0.334 | 0.659 | 0.483 | 0.713 | 0.455 | 0.679 | 0.305 | 0.586 | 0.534 | 0.337 | 0.515 | 0.49
4 | CS(=O)(=O)CCNCc1ccc(-c2ccc3ncnc(Nc4ccc(OCc5cccc(F)c5)c(Cl)c4)c3c2)o1 [Lapatinib] + C[C@@H](Oc1cc(-c2cnn(C3CCNCC3)c2)cnc1N)c1c(Cl)ccc(F)c1Cl [Crizotinib] (first compound max 10 µM, 7x7, partner max 10 µM) | 0.943 | 0.809 | 0.862 | 0.911 | 0.96 | 0.987 | 0.609 | 0.988 | 0.944 | 0.9 | 0.842 | 0.928 | 0.595 | 0.949 | 0.594 | 0.554 | 0.477 | 0.978 | 0.9 | 0.756
5 | CC1(C)CCC(CN2CCN(c3ccc(C(=O)NS(=O)(=O)c4ccc(NCC5CCOCC5)c([N+](=O)[O-])c4)c(Oc4cnc5[nH]ccc5c4)c3)CC2)=C(c2ccc(Cl)cc2)C1 [Venetoclax] + Cc1cc2ncnn2cc1Nc1ncc2c(n1)n(C1CCOCC1)c(=O)n2C [AZD7648] (first compound max 1 µM, 7x7, partner max 10 µM) | 0.222 | 0.3 | 0.205 | 0.427 | 0.269 | 0.128 | 0.258 | 0.996 | 0.212 | 0.38 | 0.172 | 0.164 | 0.179 | 0.523 | 0.286 | 0.417 | 0.321 | 0.837 | 0.302 | 0.233
6 | CC1(C)CCC(CN2CCN(c3ccc(C(=O)NS(=O)(=O)c4ccc(NCC5CCOCC5)c([N+](=O)[O-])c4)c(Oc4cnc5[nH]ccc5c4)c3)CC2)=C(c2ccc(Cl)cc2)C1 [Venetoclax] + C1CN(CCC1(C(=O)N[C@@H](CCO)C2=CC=C(C=C2)Cl)N)C3=NC=NC4=C3C=CN4 [Capivasertib] (first compound max 1 µM, 7x7, partner max 3 µM) | 0.235 | 0.259 | 0.174 | 0.581 | 0.213 | 0.212 | 0.239 | 1 | 0.226 | 0.395 | 0.14 | 0.203 | 0.202 | 0.426 | 0.199 | 0.489 | 0.364 | 0.837 | 0.254 | 0.264
